These are literature values, as cited in PubChem BioAssay AID1259409 (Chemical Carcinogenesis Research Information System (CCRIS), 2018).

The data set relates to rodent chemically induced tumor inhibition, incidence and multiplicity. The data set can be described thus: CCRIS tumor inhibitor studies.

`CC1=C(/C=C/C(C)=C/C=C/C(C)=C\C(=O)O)C(C)(C)CCC1`: the “tumour outcome (control, treated, inhibition, significance)” value was 8/24 (33%), 0/19 (0%), 100%, p<0.01 (Carcinogen: N-BUTYL-N-(4-HYDROXYBUTYL)NITROSAMINE, 3817-11-6, Dose [Inhibitor]: 200 MG/KG DIET DAILY STARTING 7 D AFTER LAST CARCINOGEN DOSE AND CONTINUING THROUGH THE END OF STUDY (STUDY DURATION: 6, Route [Inhibitor]: ORAL, Species: MOUSE, Strain/Sex: C57BL/MALE, Target Tissue: Type of Lesion: URINARY BLADDER: TRANSITIONAL AND SQUAMOUS CELL CARCINOMA, Dose [Carcinogen]: 7.5 MG 2/WK FOR 6 WK, Promoter: NONE USED); 12/22 (55%), 8/25 (32%), 42%, not significant (Carcinogen: N-BUTYL-N-(4-HYDROXYBUTYL)NITROSAMINE, 3817-11-6, Dose [Inhibitor]: 200 MG/KG DIET DAILY STARTING 7 D AFTER LAST CARCINOGEN INTUBATION AND CONTINUING THROUGH THE END OF STUDY (STUDY DURATI, Route [Inhibitor]: ORAL, Species: MOUSE, Strain/Sex: C57BL/MALE, Target Tissue: Type of Lesion: URINARY BLADDER: NEOPLASM (CARCINOMA, NONINVASIVE TRANSITIONAL CELL PAPILLOMA), Dose [Carcinogen]: 10 MG 2/WK FOR 7 WK, Promoter: NONE USED); 6/22 (27%), 5/25 (20%), 26%, not significant (Carcinogen: N-BUTYL-N-(4-HYDROXYBUTYL)NITROSAMINE, 3817-11-6, Dose [Inhibitor]: 200 MG/KG DIET DAILY STARTING 7 D AFTER LAST CARCINOGEN INTUBATION AND CONTINUING THROUGH THE END OF STUDY (STUDY DURATI, Route [Inhibitor]: ORAL, Species: MOUSE, Strain/Sex: C57BL/MALE, Target Tissue: Type of Lesion: URINARY BLADDER: SQUAMOUS CELL CARCINOMA, Dose [Carcinogen]: 10 MG 2/WK FOR 7 WK, Promoter: NONE USED); 10/22 (45%), 7/25 (28%), 38%, not significant (Carcinogen: N-BUTYL-N-(4-HYDROXYBUTYL)NITROSAMINE, 3817-11-6, Dose [Inhibitor]: 200 MG/KG DIET DAILY STARTING 7 D AFTER LAST CARCINOGEN INTUBATION AND CONTINUING THROUGH THE END OF STUDY (STUDY DURATI, Route [Inhibitor]: ORAL, Species: MOUSE, Strain/Sex: C57BL/MALE, Target Tissue: Type of Lesion: URINARY BLADDER: TRANSITIONAL AND SQUAMOUS CELL CARCINOMA, Dose [Carcinogen]: 10 MG 2/WK FOR 7 WK, Promoter: NONE USED); 53%, 47%, 11%, not significant (Carcinogen: N-BUTYL-N-(4-HYDROXYBUTYL)NITROSAMINE, 3817-11-6, Dose [Inhibitor]: 240 MG/KG DIET DAILY STARTING 1, 5 OR 9 WK AFTER LAST CARCINOGEN INTUBATION AND CONTINUING THROUGH THE END OF STUDY (STU, Route [Inhibitor]: ORAL, Species: RAT, Strain/Sex: F344/MALE, Target Tissue: Type of Lesion: URINARY BLADDER: TRANSITIONAL CELL CARCINOMA, Dose [Carcinogen]: 100 MG 2/WK FOR 6 WK, Promoter: NONE USED); 82%, 65%, 21%, p<0.01 (Carcinogen: N-BUTYL-N-(4-HYDROXYBUTYL)NITROSAMINE, 3817-11-6, Dose [Inhibitor]: 240 MG/KG DIET DAILY STARTING 1, 5 OR 9 WK AFTER LAST CARCINOGEN INTUBATION AND CONTINUING THROUGH THE END OF STUDY (STU, Route [Inhibitor]: ORAL, Species: RAT, Strain/Sex: F344/MALE, Target Tissue: Type of Lesion: URINARY BLADDER: TRANSITIONAL CELL CARCINOMA, Dose [Carcinogen]: 150 MG 2/WK FOR 6 WK, Promoter: NONE USED). In addition, the “tumour outcome (control, treated, inhibition, significance)” value is listed as 94%, 74%, 21%, p<0.001 (Carcinogen: N-BUTYL-N-(4-HYDROXYBUTYL)NITROSAMINE, 3817-11-6, Dose [Inhibitor]: 240 MG/KG DIET DAILY STARTING 1, 5 OR 9 WK AFTER LAST CARCINOGEN INTUBATION AND CONTINUING THROUGH THE END OF STUDY (STU, Route [Inhibitor]: ORAL, Species: RAT, Strain/Sex: F344/MALE, Target Tissue: Type of Lesion: URINARY BLADDER: TRANSITIONAL CELL CARCINOMA, Dose [Carcinogen]: 200 MG 2/WK FOR 6 WK, Promoter: NONE USED); 9/22 (41%), 4/21(19%), 54%, p<.05 (Carcinogen: N-BUTYL-N-(4-HYDROXYBUTYL)NITROSAMINE, 3817-11-6, Dose [Inhibitor]: 240 MG/KG DIET DAILY STARTING 1 WK AFTER LAST CARCINOGEN DOSE AND CONTINUING FOR DURATION OF STUDY (STUDY DURATION: 6 MO, Route [Inhibitor]: ORAL, Species: RAT, Strain/Sex: F344/MALE, Target Tissue: Type of Lesion: BLADDER: TRANSITIONAL CELL CARCINOMA (HIGH GRADE), Dose [Carcinogen]: 200 MG IN 0.5 ML OF 20% ETHANOL 2/WK FOR 6 WK, Promoter: NONE USED); 92%, 96%, -4%, not significant (Carcinogen: N-METHYL-N'-NITRO-N-NITROSOGUANIDINE, 70-25-7, Dose [Inhibitor]: 34 NMOL ONCE 0.5 HR BEFORE CARCINOGEN APPLICATION (STUDY DURATION: 25 WK), Route [Inhibitor]: DERMAL, Species: MOUSE, Strain/Sex: CD-1/FEMALE, Target Tissue: Type of Lesion: SKIN: PAPILLOMA, Dose [Carcinogen]: 5 UMOL IN 0.2 ML ACETONE ONCE 0.5 HR AFTER AGENT TREATMENT, Promoter: 12-O-TETRADECANOYLPHORBOL-13-ACETATE, 16561-29-8); 8/30 (27%), 2/21 (10%), 63%, p<0.05 (Carcinogen: N-METHYL-N-NITROSOUREA, 684-93-5, Dose [Inhibitor]: 12.5 MG/KG DAILY IN DIET STARTING 1 D AFTER LAST CARCINOGEN INJECTION AND CONTINUING FOR 256 D (STUDY DURATION: 285 D), Route [Inhibitor]: ORAL, Species: RAT, Strain/Sex: WISTAR-LEWIS/FEMALE, Target Tissue: Type of Lesion: URINARY BLADDER: PAPILLARY UROTHELIAL TUMOR, Dose [Carcinogen]: 1.5 MG IN 0.15 ML SALINE INJECTED INTO A SURGICALLY EXPOSED BLADDER 1/2 WK FOR A TOTAL OF 3 INJECTIONS, Promoter: NONE USED). In addition, where the note is “Carcinogen: N-BUTYL-N-(4-HYDROXYBUTYL)NITROSAMINE, 3817-11-6, Dose [Inhibitor]: 200 MG/KG DIET DAILY STARTING 7 D AFTER LAST CARCINOGEN INTUBATION AND CONTINUING THROUGH THE END OF STUDY (STUDY DURATI, Route [Inhibitor]: ORAL, Species: MOUSE, Strain/Sex: C57BL/MALE, Target Tissue: Type of Lesion: URINARY BLADDER: SQUAMOUS CELL CARCINOMA, Dose [Carcinogen]: 7.5 MG 2/WK FOR 6 WK, Promoter: NONE USED”, the outcome is 6/24 (25%), 0/19 (0%), p<0.05.
